# Data: patent publication US11471395B2, “Method for preventing aging with bioactive compound” (TCI CO., LTD., priority 2020, dated 2022)
# Columns and labels:
# Format in all cases: cell-based
# Atg8 gene = assay: Anti-aging gene expression test in human fibroblasts (qPCR), Atg8 gene; conditions: 25 μg synthesized peptide per 1 ml medium, human fibroblasts (CCD-966SK), 24 h, 37° C.
# Experimental: (§1) In order to confirm the effect of each of the amino acid sequences on gene expression in cells, human fibroblasts (CCD-966SK) and individual synthesized peptides were co-cultured, and then, gene expression in the cells was analyzed. 6 types of synthesized peptides were respectively subjected to cell experiments. In addition, the amino acid sequences of 6 types of synthesized peptides were respectively SEQ ID NO: 1, SEQ ID NO: 2, SEQ ID NO: 3, SEQ ID NO: 4, SEQ ID NO: 5 and SEQ ID NO: 6. The sequence numbers SEQ ID NO: 1 to SEQ ID NO: 6 will be referred to as groups. […]
# (§2) For peptide experiment groups (corresponding to Experiment group A to Experiment group F), according to a proportion of 25 μg of synthesized peptide per 1 ml of cell culture medium, the human fibroblasts were cultured for 24 h at 37° C. […] In addition, the primers firstly reacted by a green fluorescent dye of SYBR green dye (Applied Biosystem), and quantification of gene expression was performed by a 2-ΔΔCt method. It should be noted that the gene expression in the drawings was shown in relative fold, ratio or percentage, where standard deviations were calculated by an STDEV formula of Excel software, and statistically significant differences were analyzed by one-tailed student t-test in the Excel software. […]
# CCT2 gene = assay: Anti-aging gene expression test in human fibroblasts (qPCR), CCT2 gene; conditions: 25 μg synthesized peptide per 1 ml medium, human fibroblasts (CCD-966SK), 24 h, 37° C.
# Experimental: as §1, §2
# CCT5 gene = assay: Anti-aging gene expression test in human fibroblasts (qPCR), CCT5 gene; conditions: 25 μg synthesized peptide per 1 ml medium, human fibroblasts (CCD-966SK), 24 h, 37° C.
# Experimental: as §1, §2
# CCT6A gene = assay: Anti-aging gene expression test in human fibroblasts (qPCR), CCT6A gene; conditions: 25 μg synthesized peptide per 1 ml medium, human fibroblasts (CCD-966SK), 24 h, 37° C.
# Experimental: as §1, §2
# CCT7 gene = assay: Anti-aging gene expression test in human fibroblasts (qPCR), CCT7 gene; conditions: 25 μg synthesized peptide per 1 ml medium, human fibroblasts (CCD-966SK), 24 h, 37° C.
# Experimental: as §1, §2
# CCT8 gene = assay: Anti-aging gene expression test in human fibroblasts (qPCR), CCT8 gene; conditions: 25 μg synthesized peptide per 1 ml medium, human fibroblasts (CCD-966SK), 24 h, 37° C.
# Experimental: as §1, §2
# Pink1 gene = assay: Anti-aging gene expression test in human fibroblasts (qPCR), Pink1 gene; conditions: 25 μg synthesized peptide per 1 ml medium, human fibroblasts (CCD-966SK), 24 h, 37° C.
# Experimental: as §1, §2
# SIRT1 gene = assay: Anti-aging gene expression test in human fibroblasts (qPCR), SIRT1 gene; conditions: 25 μg synthesized peptide per 1 ml medium, human fibroblasts (CCD-966SK), 24 h, 37° C.
# Experimental: as §1, §2
# Ubl-5 gene = assay: Anti-aging gene expression test in human fibroblasts (qPCR), Ubl-5 gene; conditions: 25 μg synthesized peptide per 1 ml medium, human fibroblasts (CCD-966SK), 24 h, 37° C.
# Experimental: as §1, §2
# [1] = tested on: mitochondria activities of human fibroblasts (CCD-966SK); assay: Mitochondria activity test (JC-1 membrane potential, flow cytometry); conditions: 24 h, 37° C.
# Experimental: Then, in order to confirm the effect of each of the amino acid sequences on mitochondria activities, human fibroblasts (CCD-966SK) and the individual peptides were co-cultured, and then, the mitochondrion activities was analyzed. 6 types of synthesized peptides were respectively subjected to mitochondria activity tests. In addition, the amino acid sequences of 6 types of synthesized peptides were respectively SEQ ID NO: 1, SEQ ID NO: 2, SEQ ID NO: 3, SEQ ID NO: 4, SEQ ID NO: 5 and SEQ ID NO: 6. The sequence numbers SEQ ID NO: 1 to SEQ ID NO: 6 will be referred to as groups.
# For mitochondria activity tests, after human fibroblasts and samples to be tested (such as peptides or compositions) were co-cultured, then, co-cultured cells were treated by a mitochondria membrane potential detection kit (containing a JC-1 mitochondria coloring agent, purchased from BD). Mitochondria activity test groups were divided into 7 groups.
# Firstly, each of the groups (Experiment group H to Experiment group M, and Control group) was co-cultured with 1×10^5 human fibroblasts in a cell culture plate containing 2 ml of cell culture medium (X-VIVO™ 10). Then, the samples to be tested for each of the group were added into corresponding culture plates according to Table 6, and were co-cultured with the human fibroblasts at 37° C. for 24 h. Control group was co-cultured for 24 h by a peptide-free culture medium under the same conditions.
# Before the mitochondria activity test was performed, a JC-1 mitochondria coloring agent was prepared. Firstly, a 10× JC-1 buffer solution was preheated at 37° C., was then diluted into a 1× JC-1 buffer solution by a 1× phosphate buffer solution (PBS, purchased from Gibco), and was maintained at 37° C. after being uniformly mixed. 130 μl of dimethyl sulfoxide (DMSO) was added into a lyophilized JC-1 reagent to prepare a JC-1 stock solution. Then, the JC-1 stock solution was diluted 1000 folds by the 1× JC-1 buffer solution to prepare a JC-1 work solution.
# After co-culture for 24 h, the cell culture medium in the culture plate was removed. The co-cultured cells were rinsed twice by PBS so as to remove the residual cell culture medium. The cells were trypsinized from the culture plate, and were collected into a 1.5 ml microcentrifuge tube to be centrifuged for 5 min at 400×g so as to form a primary supernatant and a primary cell precipitate. After the primary supernatant was removed, the primary cell precipitate was resuspended by PBS to form a primary cell solution. The primary cell solution was transferred into a 1.5 ml centrifuge tube to be centrifuged for 5 min at 400×g again so as to separate the primary cell solution into a secondary supernatant and a secondary cell precipitate. Then, after the secondary supernatant was removed, 100 μl of JC-1 work solution was added to the secondary cell precipitate and vortexed to form a secondary cell solution. The secondary cell solution was cultured in dark at a room temperature for 15 min.
# After cultured dark, the secondary cell solution was centrifuged for 5 min at 400×g. […] Standard deviations of the results were calculated by an STDEV formula of Excel software, and statistically significant differences were analyzed by one-tailed student t-test in the Excel software. […]
Sequence,fold of upregulation of Atg8 gene expression vs Control group (Atg8 gene) [folds],fold of upregulation of CCT2 gene expression vs Control group (CCT2 gene) [folds],fold of upregulation of CCT5 gene expression vs Control group (CCT5 gene) [folds],fold of upregulation of CCT6A gene expression vs Control group (CCT6A gene) [folds],fold of upregulation of CCT7 gene expression vs Control group (CCT7 gene) [folds],fold of upregulation of CCT8 gene expression vs Control group (CCT8 gene) [folds],fold of upregulation of Pink1 gene expression vs Control group (Pink1 gene) [folds],fold of upregulation of SIRT1 gene expression vs Control group (SIRT1 gene) [folds],fold of upregulation of Ubl-5 gene expression vs Control group (Ubl-5 gene) [folds],improvement of mitochondria activities as compared with Control group ([1]; 10 μg peptide in 2 ml medium) [%],improvement of mitochondria activities as compared with Control group ([1]; 25 μg peptide in 2 ml medium) [%]
"DKPLIPEGP (listed as Pangasius bocourti) [SEQ ID NO: 5, synthesized peptide of Basa skin; Titin, tandem duplicate 2]",5.13,5.86,6.03,5.47,7.92,6.88,5.85,6.62,5.24,26.7,–
"GPLGPIGPPGLP (listed as Pangasius bocourti) [SEQ ID NO: 6, synthesized peptide of Basa skin; Procollagen, type V, alpha I]",4.28,5.71,6.76,5.28,7.89,6.43,6.42,6.52,5.16,–,68.9
"NPGPHGQPGPPGP (listed as Pangasius bocourti) [SEQ ID NO: 4, synthesized peptide of Basa skin; Persistent plexus]",–,–,–,–,–,–,–,–,–,32.9,–
"PGAPGSSGPKG (listed as Pangasius bocourti) [SEQ ID NO: 2, synthesized peptide of Basa skin; collagen, type XIV]",–,–,–,–,–,–,–,–,–,32.7,–
"VAEGAQGNIGPA (listed as Pangasius bocourti) [SEQ ID NO: 3, synthesized peptide of Basa skin; Kinesin family member 21B]",–,–,–,–,–,–,–,–,–,25.6,–
